According to patent publication US20020026052A1, “3-cyanoquinolines, 3-cyano-1,6-naphthyridines, and 3-cyano-1,7-naphthyridines as protein kinase inhibitors” (American Home Products Corporation, priority 2000, published 2002):

| melting point | SMILES |
| --- | --- |
| 227 to 229 °C | COc1ccc(-c2cc3ncc(C#N)c(Nc4ccc(Sc5nccn5C)c(Cl)c4)c3cc2OC)cc1 [Example 127, 4-{3-Chloro-4-[(I -methyl-iH-imidazol-2-yl)sulfanyl]anilino}-6-methoxy-7-(4-methoxyphenyl)-3-quinolinecarbonitrile] |
| 186 to 189 °C | COc1cc(Nc2c(C#N)cnc3cc(-c4cnc(C=O)n4C)ccc23)c(Cl)cc1Cl [Example 96, 4-(2,4-Dichloro-5-methoxyanilino)-7-(2-formyl-1-methyl-1H-imidazol-5-yl)-3-quinolinecarbonitrile] |
| 135 to 137 °C | COC(=O)C1CCN(Cc2ccc(-c3ccc4c(Nc5ccc(Sc6nccn6C)c(Cl)c5)c(C#N)cnc4c3)nc2)CC1 [Example 107, Methyl 1-{[6-(4-{3-chloro-4-[(1-methyl-1H-imidazol-2-yl)sulfanyl]anilino}-3-cyano-7-quinolinyl)-3-pyridinyl]methyl}-4-piperidinecarboxylate] |
| 157 to 159 °C | CN1CCN(Cc2cccc(-c3ccc4c(Nc5ccc(Sc6nccn6C)c(Cl)c5)c(C#N)cnc4c3)n2)CC1 [Example 202, 4-{3-Chloro-4-[(1-methyl-1H-imidazol-2-yl)sulfanyl]anilino}-7-{6-[(4-methyl-1-piperazinyl)methyl]-2-pyridinyl}-3-quinolinecarbonitrile] |
| 100 °C (dec.) | Cn1ccnc1Sc1ccc(Nc2c(C#N)cnc3cc(-c4ccc(CN5CCCCC5)s4)ccc23)cc1Cl [Example 160, 4-{3-Chloro-4-[(1-methyl-1H-imidazol-2-yl)sulfanyl]anilino}-7-[5-(1-piperidinylmethyl)-2-thienyl]-3-quinolinecarbonitrile] |
| 240 to 242 °C | COc1cc(Nc2c(C#N)cnc3cc(-c4ccc(N5CCN(C)CC5)nc4)ccc23)c(Cl)cc1Cl [Example 198, 4-(2,4-Dichloro-5-methoxyanilino)-7-[6-(4-methyl-1-piperazinyl)-3-pyridinyl]-3-quinolinecarbonitrile] |
| 173 to 175 °C | Cn1ccnc1Sc1ccc(Nc2c(C#N)cnc3cc(-c4cc(CN5CCOCC5)c(CN5CCOCC5)s4)ccc23)cc1Cl [Example 169, 7-[4,5-Bis(4-morpholinylmethyl)-2-thienyl]-4-{3-chloro-4-[(1-methyl-1H-irnidazol-2-yl)sulfanyl]anilino}-3-quinolinecarbonitrile] |
| 239 to 241 °C | Cn1ccnc1Sc1ccc(Nc2c(C#N)cnc3cc(-c4ccc(N5CCN(CCO)CC5)nc4)ccc23)cc1Cl [Example 215, 4-({3-Chloro-4-[(1-methyl-1H-irnidazol-2-yl)sulfanyl]phenyl}amino)-7-{6-[4-(2-hydroxyethyl)-1-piperazinyl]-3-pyridinyl}-3-quinolinecarbonitrile] |
| > 240 °C (dec.) | Cn1ccnc1Sc1ccc(Nc2c(C#N)cnc3cc(-c4ccc(C=O)cc4)ccc23)cc1Cl [Example 62, 4-{3-chloro-4-[(1-methyl-1H-imidazol-2-yl)sulfanyl]anilino}-7-(4-formylphenyl)-3-quinolinecarbonitrile] |
| 192 to 195 °C | CCN1CCN(Cc2ccc(-c3ccc4c(Nc5ccc(Sc6nccn6C)c(Cl)c5)c(C#N)cnc4c3)cn2)CC1 [Example 220, 4-({3-Chloro-4-[(1-methyl-1H-imidazol-2-yl)sulfanyl]phenyl}amino)-7-1-{6-[(4-ethyl-1-piperazinyl)methyl]-3-pyridinyl}-3-quinolinecarbonitrile] |
| 276 to 278 °C | Cn1ccnc1Sc1ccc(Nc2c(C#N)cnc3ccc(-c4ccc(N5CCOCC5)nc4)cc23)cc1Cl [Example 184, 4-({3-Chloro-4-[(1-methyl-1H-imidazol-2-yl)sulfanyl]phenyl}amino)-6-[6-(4-morpholinyl)-3-pyridinyl]-3-quinolinecarbonitrile] |
| 230 to 232 °C | Cn1ccnc1Sc1ccc(Nc2c(C#N)cnc3cc(-c4ccc(CN5CCC(O)CC5)cc4)ccc23)cc1Cl [Example 134, 4-{3-Chloro-4-[(1-methyl-LH-imidazol-2-yl)sulfanyl]anilino}-7-{4-[(4-hydroxy-1-piperidinyl)methyl]phenyl}-3-quinolinecarbonitrile] |
| 183 to 185 °C | Cn1ccnc1Sc1ccc(Nc2c(C#N)cnc3cc(-c4ccc(CN5CCC(N6CCCC6)CC5)cn4)ccc23)cc1Cl [Example 173, 4-{3-Chloro-4-[(1-methyl-1H-imidazol-2-yl)sulfanyl]anilino}-7-(5-{[4-(1-pyrrolidinyl)-1-piperidinyl]methyl}-2-pyridinyl)-3-quinolinecarbonitrile] |
| 260 to 262 °C | CN1CCN(Cc2ccc(-c3ccc4ncc(C#N)c(Nc5ccc(Sc6nccn6C)c(Cl)c5)c4c3)nc2)CC1 [Example 183, 4-({3-Chloro-4-[(1-methyl-1H-imidazol-2-yl)sulfanyl]phenyl}amino)-6-{5-[(4-methyl-1-piperazinyl)methyl]-2-pyridinyl}-3-quinolinecarbonitrile] |
| 208 to 210 °C | CN1CCN(Cc2ccnc(-c3ccc4c(Nc5ccc(Sc6nccn6C)c(Cl)c5)c(C#N)cnc4c3)c2)CC1 [Example 206, 4-({3-Chloro-4-[(1-methyl-1H-imidazol-2-yl)sulfanyl]phenyl}amino)-7-{4-[(4-methyl-I -piperazinyl)methyl]-2-pyridinyl}-3-quinolinecarbonitrile] |
| 219 to 221 °C | N#Cc1cnc2cc(-c3ccc(CN4CCOCC4)cn3)ccc2c1Nc1ccc(Oc2ccccc2)cc1 [Example 56, 7-[5-(4-Morpholinylmethyl)-2-pyridinyl]-4-(4-phenoxyanilino)-3-quinolinecarbonitrile] |
| 195 °C (dec.) | Cn1ccnc1Sc1ccc(Nc2c(C#N)cnc3cc(-c4ncccc4CN4CCOCC4)ccc23)cc1Cl [Example 207, 4-({3-Chloro-4-[(1-methyl-1H-imidazol-2-yl)sulfanyl]phenyl}amino)-7-[3-(4-morpholinylmethyl)-2-pyridinyl]-3-quinolinecarbonitrile] |
| 233 to 235 °C | Cn1ccnc1Sc1ccc(Nc2c(C#N)cnc3cc(-c4ccc(CN5CCOCC5)nc4)ccc23)cc1Cl [Example 109, 4-({3-chloro-4-[(1-methylimidazol-2-yl)sulfanyl]phenyl}amino)-7-[6-(4-morpholinylmethyl)-3-pyridinyl]-3-quinolinecarbonitrile] |
| 224 to 226 °C | Cn1ccnc1Sc1ccc(Nc2c(C#N)cnc3cc(-c4ccc(CN5CCOCC5)o4)ccc23)cc1Cl [Example 154, 4-{3-Chloro-4-[(1-methyl-1H-imidazol-2-yl)sulfanyl]anilino}-7-[5-(4-morpholinylmethyl)-2-furyl]-3-quinolinecarbonitrile] |
| 150 °C (dec.) | COc1cc(Nc2c(C#N)cnc3cc(-c4ccc(CN5CCC(C(=O)O)CC5)cn4)ccc23)c(Cl)cc1Cl [Example 177, 1-{6-[3-Cyano-4-(2,4-dichloro-5-methoxyphenylarino)-quinolin-7-yl]-pyridin-3-ylmethyl}-piperidine-4-carboxylic acid] |
| 205 to 207 °C | COCCOc1ccc(-c2ccc3c(Nc4cc(OC)c(Cl)cc4Cl)c(C#N)cnc3c2)cc1 [Example 130, 4-(2,4-Dichloro-5-methoxyanilino)-7-{4-[(2-methoxy)ethoxy]phenyl}-3-quinolinecarbonitrile] |
